Values after ≈ are worked out from the molar mass of the structure shown. Values joined by “and” are separate entries in the source; they are usually repeats but may differ in a detail not shown here. Equal values may be shown once.
Assays:
[1] = system: 60-resistant (60-r) isolates of E. coli W3110; assay: microbe, parasite or virus in culture; assay type: cell-based, Escherichia coli; details: Escherichia coli
Method: MIC was determined by broth microdilution. Single-colony cultures were grown to exponential phase (OD600 of 0.5) aerobically at 37 °C. In case of strains from the Keio collection, 50 µg ml^−1 kanamycin was supplemented to the media to ascertain a homogeneous population. The bacterial suspensions were diluted 100-fold in CAMHB and 50 µl was added to a twofold serial dilution series of test compounds (50 µl per well) in polypropylene 96-well microtitre plates to reach a volume of 100 µl. The plates were sealed with breathable membranes and incubated overnight at 37 °C with constant shaking (600 r.p.m.). The MIC was determined as the lowest concentration at which no visible bacterial growth was observed as compared with the inoculum controls from the median of a minimum of triplicates.
The plates were incubated at 37 °C and checked for growth after 24 and 48 h. […] Nine colonies with an increased MIC were selected for further analysis and stored as glycerol stocks.

E. coli W3110 = assay: Checkerboard assay with PMBN;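 as to checkerboard plate reading, Average values: OD600 read after 20 h incubation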;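 as to checkerboard plate reading, replicate wells: OD600 read after 20 h incubation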

## O=S(=O)(NC[C@@H]1CC[C@H](c2ccc(-c3cccnc3)cc2)N1)c1cccc2cnccc12 [LEI-800]
[1]; E. coli W3110 60-r1
  MIC: > 50 µM
[1]; E. coli W3110 60-r3
  MIC: 12.5 µM (≈ 5.56 µg/mL)
[1]; E. coli W3110 60-r6
  MIC: 12.5 µM (≈ 5.56 µg/mL)
E. coli W3110; Escherichia coli, W3110
  MIC: 3.13 µM
E. coli W3110; LEI-800 0.0488281 µM + PMBN 0 µM
  checkerboard plate reading, replicate wells: 0.6247 and 0.5887 and 0.5873
E. coli W3110; LEI-800 0.0488281 µM + PMBN 0 µM (by position)
  checkerboard plate reading, Average values: 0.6003
E. coli W3110; LEI-800 0.0488281 µM + PMBN 0.5 µM
  checkerboard plate reading, replicate wells: 0.5854 and 0.5839 and 0.7031
E. coli W3110; LEI-800 0.0488281 µM + PMBN 0.5 µM (by position)
  checkerboard plate reading, Average values: 0.5871
E. coli W3110; LEI-800 0.0488281 µM + PMBN 1 µM
  checkerboard plate reading, replicate wells: 0.5898 and 0.5581 and 0.551
E. coli W3110; LEI-800 0.0488281 µM + PMBN 1 µM (by position)
  checkerboard plate reading, Average values: 0.5855
E. coli W3110; LEI-800 0.0488281 µM + PMBN 2 µM
  checkerboard plate reading, replicate wells: 0.674 and 0.6137 and 0.6739
E. coli W3110; LEI-800 0.0488281 µM + PMBN 2 µM (by position)
  checkerboard plate reading, Average values: 0.6241
E. coli W3110; LEI-800 0.0488281 µM + PMBN 4 µM
  checkerboard plate reading, replicate wells: 0.5444 and 0.5786 and 0.5784
E. coli W3110; LEI-800 0.0488281 µM + PMBN 4 µM (by position)
  checkerboard plate reading, Average values: 0.615
E. coli W3110; LEI-800 0.0488281 µM + PMBN 8 µM
  checkerboard plate reading, replicate wells: 0.315 and 0.3156 and 0.322
E. coli W3110; LEI-800 0.0488281 µM + PMBN 8 µM (by position)
  checkerboard plate reading, Average values: 0.6041
E. coli W3110; LEI-800 0.0488281 µM + PMBN 16 µM
  checkerboard plate reading, replicate wells: 0.3097 and 0.3235 and 0.4832
E. coli W3110; LEI-800 0.0488281 µM + PMBN 16 µM (by position)
  checkerboard plate reading, Average values: 0.5663
E. coli W3110; LEI-800 0.0488281 µM + PMBN 32 µM
  checkerboard plate reading, replicate wells: 0.3631 and 0.3487 and 0.3575
E. coli W3110; LEI-800 0.0488281 µM + PMBN 32 µM (by position)
  checkerboard plate reading, Average values: 0.6049
E. coli W3110; LEI-800 0.0976562 µM + PMBN 0 µM
  checkerboard plate reading, replicate wells: 0.5677 and 0.5498 and 0.5376
E. coli W3110; LEI-800 0.0976562 µM + PMBN 0 µM (by position)
  checkerboard plate reading, Average values: 0.5517
E. coli W3110; LEI-800 0.0976562 µM + PMBN 0.5 µM
  checkerboard plate reading, replicate wells: 0.5272 and 0.5363 and 0.6045
E. coli W3110; LEI-800 0.0976562 µM + PMBN 0.5 µM (by position)
  checkerboard plate reading, Average values: 0.5382
E. coli W3110; LEI-800 0.0976562 µM + PMBN 1 µM
  checkerboard plate reading, replicate wells: 0.5455 and 0.5265 and 0.5304
E. coli W3110; LEI-800 0.0976562 µM + PMBN 1 µM (by position)
  checkerboard plate reading, Average values: 0.5337
E. coli W3110; LEI-800 0.0976562 µM + PMBN 2 µM
  checkerboard plate reading, replicate wells: 0.528 and 0.523 and 0.4812
E. coli W3110; LEI-800 0.0976562 µM + PMBN 2 µM (by position)
  checkerboard plate reading, Average values: 0.556
E. coli W3110; LEI-800 0.0976562 µM + PMBN 4 µM
  checkerboard plate reading, replicate wells: 0.3324 and 0.3512 and 0.3333
E. coli W3110; LEI-800 0.0976562 µM + PMBN 4 µM (by position)
  checkerboard plate reading, Average values: 0.5558
E. coli W3110; LEI-800 0.0976562 µM + PMBN 8 µM
  checkerboard plate reading, replicate wells: 0.2503 and 0.2429 and 0.246
E. coli W3110; LEI-800 0.0976562 µM + PMBN 8 µM (by position)
  checkerboard plate reading, Average values: 0.5538
E. coli W3110; LEI-800 0.0976562 µM + PMBN 16 µM
  checkerboard plate reading, replicate wells: 0.2399 and 0.265 and 0.2959
E. coli W3110; LEI-800 0.0976562 µM + PMBN 16 µM (by position)
  checkerboard plate reading, Average values: 0.5341
E. coli W3110; LEI-800 0.0976562 µM + PMBN 32 µM
  checkerboard plate reading, replicate wells: 0.2697 and 0.2568 and 0.2475
E. coli W3110; LEI-800 0.0976562 µM + PMBN 32 µM (by position)
  checkerboard plate reading, Average values: 0.5346
E. coli W3110; LEI-800 0.195312 µM + PMBN 0 µM (by position)
  checkerboard plate reading, Average values: 0.5248
E. coli W3110; LEI-800 0.195312 µM + PMBN 0.5 µM (by position)
  checkerboard plate reading, Average values: 0.5135
E. coli W3110; LEI-800 0.195312 µM + PMBN 1 µM (by position)
  checkerboard plate reading, Average values: 0.5141
E. coli W3110; LEI-800 0.195312 µM + PMBN 2 µM (by position)
  checkerboard plate reading, Average values: 0.5165
E. coli W3110; LEI-800 0.195312 µM + PMBN 4 µM (by position)
  checkerboard plate reading, Average values: 0.4968
E. coli W3110; LEI-800 0.195312 µM + PMBN 8 µM (by position)
  checkerboard plate reading, Average values: 0.478
E. coli W3110; LEI-800 0.195312 µM + PMBN 16 µM (by position)
  checkerboard plate reading, Average values: 0.4685
E. coli W3110; LEI-800 0.195312 µM + PMBN 32 µM (by position)
  checkerboard plate reading, Average values: 0.4392
E. coli W3110; LEI-800 0.390625 µM + PMBN 0 µM (by position)
  checkerboard plate reading, Average values: 0.4881
E. coli W3110; LEI-800 0.390625 µM + PMBN 0.5 µM (by position)
  checkerboard plate reading, Average values: 0.4714
E. coli W3110; LEI-800 0.390625 µM + PMBN 1 µM (by position)
  checkerboard plate reading, Average values: 0.4607

Reference: PMC11374673, “Discovery of isoquinoline sulfonamides as allosteric gyrase inhibitors with activity against fluoroquinolone-resistant bacteria” (Nature Chemistry, 2024)
